Data taken from ChEMBL document CHEMBL2429742, “Design, synthesis, and biological evaluation of novel 3-pyrrolo[b]cyclohexylene-2-dihydroindolinone derivatives as potent receptor tyrosine kinase inhibitors” (Bioorg Med Chem Lett, 2013).

Columns and labels:
[1] = target: Platelet-derived growth factor receptor beta (Homo sapiens, UniProt P09619)
[2] = target: Vascular endothelial growth factor receptor 2 (Homo sapiens, UniProt P35968)
[3] = target: Mast/stem cell growth factor receptor Kit (Homo sapiens, UniProt P10721)
Chain of Mast/stem cell growth factor receptor Kit (P10721 whole entry): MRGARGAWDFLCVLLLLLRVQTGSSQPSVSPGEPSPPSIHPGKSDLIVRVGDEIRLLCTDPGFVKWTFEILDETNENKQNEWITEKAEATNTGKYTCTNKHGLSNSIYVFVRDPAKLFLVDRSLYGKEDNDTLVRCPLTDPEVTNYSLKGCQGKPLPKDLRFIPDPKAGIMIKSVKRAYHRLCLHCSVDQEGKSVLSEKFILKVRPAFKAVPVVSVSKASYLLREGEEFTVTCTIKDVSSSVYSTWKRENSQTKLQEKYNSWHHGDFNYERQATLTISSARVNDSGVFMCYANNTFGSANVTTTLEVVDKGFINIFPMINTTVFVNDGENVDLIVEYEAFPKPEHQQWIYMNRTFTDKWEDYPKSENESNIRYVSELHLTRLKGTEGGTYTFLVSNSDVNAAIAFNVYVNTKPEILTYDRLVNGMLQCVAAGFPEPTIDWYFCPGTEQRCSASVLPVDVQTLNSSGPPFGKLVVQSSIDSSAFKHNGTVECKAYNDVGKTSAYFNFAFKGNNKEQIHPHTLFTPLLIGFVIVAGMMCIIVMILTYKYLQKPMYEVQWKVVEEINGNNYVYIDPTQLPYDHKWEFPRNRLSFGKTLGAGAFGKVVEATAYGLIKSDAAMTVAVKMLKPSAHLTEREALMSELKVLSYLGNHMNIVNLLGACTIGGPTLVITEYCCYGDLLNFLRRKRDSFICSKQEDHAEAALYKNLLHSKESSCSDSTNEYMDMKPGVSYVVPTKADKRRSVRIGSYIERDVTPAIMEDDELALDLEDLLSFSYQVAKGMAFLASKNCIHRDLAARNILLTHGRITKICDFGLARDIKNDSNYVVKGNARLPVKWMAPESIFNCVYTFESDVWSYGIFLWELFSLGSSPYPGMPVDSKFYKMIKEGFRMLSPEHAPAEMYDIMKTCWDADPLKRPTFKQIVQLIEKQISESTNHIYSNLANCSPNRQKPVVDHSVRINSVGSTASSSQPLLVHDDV

HepG2 = experiment: Antiproliferative activity against human HepG2 cells after 72 hrs by MTT assay; type: functional, cell-based; details: HepG2, 72 h
cells = details: Homo sapiens, BGC, 72 h
BXPC-3 [4] = experiment: cells; details: Homo sapiens, BXPC-3, 72 h
HT-29 = experiment: cells; details: Homo sapiens, HT-29, 72 h
T-24 = experiment: Antiproliferative activity against human T24 cells after 72 hrs by MTT assay; type: functional, cell-based; details: T-24, 72 h
[5] = Oral bioavailability in cynomolgus monkey; type: ADME, organism-based, Macaca fascicularis; details: in vivo
[6] = target: Vascular endothelial growth factor receptor 1 (Homo sapiens, UniProt P17948); experiment: Inhibition of VEGFR1 (unknown origin)
[7] = target: Vascular endothelial growth factor receptor 3 (Homo sapiens, UniProt P35916); experiment: Inhibition of VEGFR3 (unknown origin)
Chain of Vascular endothelial growth factor receptor 3 (P35916 whole entry): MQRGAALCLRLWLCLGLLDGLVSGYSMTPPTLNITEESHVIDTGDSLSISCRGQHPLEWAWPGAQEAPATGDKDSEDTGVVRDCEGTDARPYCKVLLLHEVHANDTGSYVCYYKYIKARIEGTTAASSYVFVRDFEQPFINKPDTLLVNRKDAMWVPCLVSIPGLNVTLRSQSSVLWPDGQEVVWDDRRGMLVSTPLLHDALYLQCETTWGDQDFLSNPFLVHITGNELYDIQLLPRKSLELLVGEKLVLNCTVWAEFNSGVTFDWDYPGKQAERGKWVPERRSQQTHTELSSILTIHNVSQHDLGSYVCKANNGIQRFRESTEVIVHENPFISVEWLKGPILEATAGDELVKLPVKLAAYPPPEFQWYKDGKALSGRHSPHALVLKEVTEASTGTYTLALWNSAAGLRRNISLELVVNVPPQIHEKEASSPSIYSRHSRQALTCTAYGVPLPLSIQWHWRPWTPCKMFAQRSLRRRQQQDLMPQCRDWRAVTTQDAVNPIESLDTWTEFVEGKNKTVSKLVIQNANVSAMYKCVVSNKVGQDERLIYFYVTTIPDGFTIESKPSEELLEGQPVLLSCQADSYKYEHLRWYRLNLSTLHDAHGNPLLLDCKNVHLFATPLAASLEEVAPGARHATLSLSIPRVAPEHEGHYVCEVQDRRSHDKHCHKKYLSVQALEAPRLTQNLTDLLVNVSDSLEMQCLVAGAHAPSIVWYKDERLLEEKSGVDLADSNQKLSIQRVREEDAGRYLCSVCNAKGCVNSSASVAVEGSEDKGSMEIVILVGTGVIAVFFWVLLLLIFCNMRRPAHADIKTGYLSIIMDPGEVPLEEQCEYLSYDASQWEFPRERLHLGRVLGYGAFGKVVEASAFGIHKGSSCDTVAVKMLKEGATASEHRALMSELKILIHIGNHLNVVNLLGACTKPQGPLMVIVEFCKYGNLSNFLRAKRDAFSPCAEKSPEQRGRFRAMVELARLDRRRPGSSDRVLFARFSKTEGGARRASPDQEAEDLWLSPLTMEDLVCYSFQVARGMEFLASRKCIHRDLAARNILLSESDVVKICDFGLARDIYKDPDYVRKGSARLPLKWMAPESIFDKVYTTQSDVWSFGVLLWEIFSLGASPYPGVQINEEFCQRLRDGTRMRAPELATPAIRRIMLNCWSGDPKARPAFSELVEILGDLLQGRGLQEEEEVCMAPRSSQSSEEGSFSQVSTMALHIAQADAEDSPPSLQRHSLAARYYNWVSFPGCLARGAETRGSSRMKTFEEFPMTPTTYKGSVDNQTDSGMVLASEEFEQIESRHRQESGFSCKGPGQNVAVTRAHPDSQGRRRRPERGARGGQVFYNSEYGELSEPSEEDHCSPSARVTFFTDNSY

BXPC-3 [8] = experiment: Ratio of sunitinib IC50 to compound IC50 for human BxPC3 cells; type: functional

Chain of Platelet-derived growth factor receptor beta (P09619 whole entry): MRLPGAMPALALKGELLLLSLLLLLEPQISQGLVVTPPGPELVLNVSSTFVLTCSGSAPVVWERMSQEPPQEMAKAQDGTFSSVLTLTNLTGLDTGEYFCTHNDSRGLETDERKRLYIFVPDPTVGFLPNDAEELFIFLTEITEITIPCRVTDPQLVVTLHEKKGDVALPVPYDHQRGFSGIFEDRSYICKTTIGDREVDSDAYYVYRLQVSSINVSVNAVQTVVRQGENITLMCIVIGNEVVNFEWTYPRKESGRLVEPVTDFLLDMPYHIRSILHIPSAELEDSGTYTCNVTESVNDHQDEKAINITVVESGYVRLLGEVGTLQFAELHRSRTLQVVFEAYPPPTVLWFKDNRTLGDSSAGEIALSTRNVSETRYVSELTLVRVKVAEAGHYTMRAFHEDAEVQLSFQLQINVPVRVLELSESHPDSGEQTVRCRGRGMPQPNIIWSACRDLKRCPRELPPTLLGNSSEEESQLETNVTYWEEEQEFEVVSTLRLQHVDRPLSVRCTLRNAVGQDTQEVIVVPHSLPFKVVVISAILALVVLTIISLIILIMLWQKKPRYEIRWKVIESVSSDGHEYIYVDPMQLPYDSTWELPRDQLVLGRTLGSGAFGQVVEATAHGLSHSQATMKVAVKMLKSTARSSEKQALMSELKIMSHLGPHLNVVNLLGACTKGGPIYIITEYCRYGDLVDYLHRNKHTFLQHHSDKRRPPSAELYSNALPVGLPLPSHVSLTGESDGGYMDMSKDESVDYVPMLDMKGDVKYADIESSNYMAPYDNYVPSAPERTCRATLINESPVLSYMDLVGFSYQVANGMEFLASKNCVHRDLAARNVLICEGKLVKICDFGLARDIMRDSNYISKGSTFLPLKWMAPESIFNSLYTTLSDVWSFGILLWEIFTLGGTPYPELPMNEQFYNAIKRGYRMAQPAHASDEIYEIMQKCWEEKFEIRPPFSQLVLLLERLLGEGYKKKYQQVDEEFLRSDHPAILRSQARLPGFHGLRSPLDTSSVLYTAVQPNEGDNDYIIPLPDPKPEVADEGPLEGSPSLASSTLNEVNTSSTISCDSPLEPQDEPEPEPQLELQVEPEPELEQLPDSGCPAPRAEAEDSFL
Chain of Vascular endothelial growth factor receptor 2 (P35968 whole entry): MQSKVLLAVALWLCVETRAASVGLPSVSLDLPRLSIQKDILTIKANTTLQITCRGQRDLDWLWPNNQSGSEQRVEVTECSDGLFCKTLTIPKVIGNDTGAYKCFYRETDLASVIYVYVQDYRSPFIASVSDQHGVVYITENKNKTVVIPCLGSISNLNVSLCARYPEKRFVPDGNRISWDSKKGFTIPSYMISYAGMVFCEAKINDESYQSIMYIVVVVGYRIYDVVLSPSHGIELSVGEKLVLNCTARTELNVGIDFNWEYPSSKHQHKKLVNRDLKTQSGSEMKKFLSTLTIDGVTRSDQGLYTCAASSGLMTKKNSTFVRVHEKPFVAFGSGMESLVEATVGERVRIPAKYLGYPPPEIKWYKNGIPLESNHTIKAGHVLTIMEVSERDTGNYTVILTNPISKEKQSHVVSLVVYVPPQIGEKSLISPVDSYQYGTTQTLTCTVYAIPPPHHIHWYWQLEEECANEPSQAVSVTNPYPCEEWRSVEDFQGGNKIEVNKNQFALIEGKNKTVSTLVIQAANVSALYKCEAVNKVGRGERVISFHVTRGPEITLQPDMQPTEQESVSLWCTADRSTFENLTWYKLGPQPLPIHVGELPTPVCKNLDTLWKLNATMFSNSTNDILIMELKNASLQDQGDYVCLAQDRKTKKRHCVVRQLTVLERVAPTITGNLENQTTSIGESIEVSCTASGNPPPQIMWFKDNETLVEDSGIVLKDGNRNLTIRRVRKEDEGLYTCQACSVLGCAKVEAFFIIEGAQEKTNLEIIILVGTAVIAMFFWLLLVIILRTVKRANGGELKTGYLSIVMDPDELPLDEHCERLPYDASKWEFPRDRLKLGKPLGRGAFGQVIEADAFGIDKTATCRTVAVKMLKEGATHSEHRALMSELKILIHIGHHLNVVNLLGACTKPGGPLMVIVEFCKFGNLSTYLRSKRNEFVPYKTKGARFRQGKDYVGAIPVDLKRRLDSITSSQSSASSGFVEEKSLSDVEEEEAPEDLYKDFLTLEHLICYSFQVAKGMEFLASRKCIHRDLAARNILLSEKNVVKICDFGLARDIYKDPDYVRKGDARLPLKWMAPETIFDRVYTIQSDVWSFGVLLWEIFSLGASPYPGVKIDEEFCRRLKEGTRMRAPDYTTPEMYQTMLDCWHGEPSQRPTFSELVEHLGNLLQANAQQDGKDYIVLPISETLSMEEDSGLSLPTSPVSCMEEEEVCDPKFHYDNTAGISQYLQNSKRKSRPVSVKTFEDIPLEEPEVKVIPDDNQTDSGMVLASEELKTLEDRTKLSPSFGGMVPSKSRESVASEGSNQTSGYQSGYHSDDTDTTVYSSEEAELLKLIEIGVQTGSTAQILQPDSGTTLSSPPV

Compound	IC50 [1]	IC50 [2]	IC50 [3]	other results
CCN(CC)CCNC(=O)c1c(C)[nH]c2c1CCC/C2=C1/C(=O)Nc2ccc(C(=O)OC)cc21	70.3 nM	167 nM	256 nM	–
CCN(CC)CCNC(=O)c1c(C)[nH]c2c1CCC/C2=C1/C(=O)Nc2ccc(Br)cc21	7.6 nM	3.9 nM	2.3 nM	–
CCN(CC)CCNC(=O)c1c(C)[nH]c2c1CCC/C2=C1/C(=O)Nc2ccc([N+](=O)[O-])cc21	13.3 nM	25.7 nM	6.9 nM	–
CCN(CC)CCNC(=O)c1c(C)[nH]c2c1CCC/C2=C1/C(=O)Nc2cccc(F)c21	62.1 nM	15 nM	43.1 nM	–
CCN(CC)CCNC(=O)c1c(C)[nH]c2c1CCC/C2=C1/C(=O)Nc2ccc(OC)cc21	101 nM	24.6 nM	35.5 nM	–
CCN(CC)CCNC(=O)c1c(C)[nH]c2c1CCC/C2=C1/C(=O)Nc2ccc(Cl)cc21	12.1 nM	2.6 nM	2.7 nM	IC50 (HepG2): 3140 nM; IC50 (cells): 2030 nM; IC50 (BXPC-3 [4]): 1950 nM; IC50 (HT-29): 6480 nM; IC50 (T-24): 1830 nM
CCN(CC)CCNC(=O)c1c(C)[nH]c2c1CCC/C2=C1/C(=O)Nc2ccc(S(=O)(=O)N(CC)CC)cc21	396 nM	330 nM	398 nM	–
CCN(CC)CCNC(=O)c1c(C)[nH]c2c1CCC/C2=C1/C(=O)Nc2c(F)cccc21	260 nM	112 nM	181 nM	–
CCN(CC)CCNC(=O)c1c(C)[nH]c2c1CCC/C2=C1/C(=O)Nc2ccc(F)cc21 [TAFETINIB]	–	–	–	IC50 (HepG2): 7270 nM; bioavailability [5]: 90%; IC50 (cells): 6110 nM; IC50 (BXPC-3 [4]): 520 nM; IC50 [6]: 1.3 nM; IC50 [7]: 1.3 nM; IC50 (HT-29): 1200 nM; IC50 (T-24): 3310 nM
CCN(CC)CCNC(=O)c1c(C)[nH]c(/C=C2\C(=O)Nc3ccc(F)cc32)c1C [SUNITINIB]	–	–	–	IC50 (HepG2): 5610 nM; IC50 (cells): 4780 nM; IC50 (BXPC-3 [4]): 3630 nM; IC50 (HT-29): 1470 nM; IC50 (T-24): 2440 nM
CCN(CC)CCNC(=O)c1c(C)[nH]c2c1CCC/C2=C1/C(=O)Nc2ccccc21	89.9 nM	9.4 nM	–	IC50 (HepG2): 7730 nM; IC50 (cells): 6730 nM; IC50 (BXPC-3 [4]): 520 nM; Ratio IC50 (BXPC-3 [8]): 7; IC50 (HT-29): 540 nM; IC50 (T-24): 3560 nM
CCN(CC)CCNC(=O)c1c(C)[nH]c2c1CCC/C2=C1/C(=O)Nc2ccc(C)cc21	15.6 nM	2.3 nM	4.1 nM	–

The next lines start with results.

IC50 [1]	IC50 [2]	IC50 [3]	Compound	other results
22.7 nM	3 nM	6.6 nM	Cc1[nH]c2c(c1C(=O)NCCN(C)C)CCC/C2=C1/C(=O)Nc2ccc(F)cc21	–
118 nM	11.8 nM	8.5 nM	Cc1[nH]c2c(c1C(=O)N1CCC[C@H]1CN1CCCC1)CCC/C2=C1/C(=O)Nc2ccc(F)cc21	–
12.7 nM	1.1 nM	1.4 nM	Cc1[nH]c2c(c1C(=O)NCCO)CCC/C2=C1/C(=O)Nc2ccc(F)cc21	–
19.3 nM	2.5 nM	4.1 nM	CCN(CC)CC(O)CNC(=O)c1c(C)[nH]c2c1CCC/C2=C1/C(=O)Nc2ccc(F)cc21 (configuration not stated)	–
19.4 nM	4.3 nM	5.8 nM	Cc1[nH]c2c(c1C(=O)NCCN1CCCCC1)CCC/C2=C1/C(=O)Nc2ccc(F)cc21	–
41.6 nM	9.7 nM	7.4 nM	Cc1[nH]c2c(c1C(=O)NCCN1CCCC1)CCC/C2=C1/C(=O)Nc2ccc(F)cc21	–
40.1 nM	1.1 nM	2.1 nM	Cc1[nH]c2c(c1C(=O)N1CCOCC1)CCC/C2=C1/C(=O)Nc2ccc(F)cc21	–
161 nM	11.4 nM	37.7 nM	Cc1[nH]c2c(c1C(=O)NCCc1ccccn1)CCC/C2=C1/C(=O)Nc2ccc(F)cc21	–
18 nM	1 nM	5.7 nM	Cc1[nH]c2c(c1C(=O)NCCCN1CCOCC1)CCC/C2=C1/C(=O)Nc2ccc(F)cc21	–
13.2 nM	1.6 nM	2 nM	Cc1[nH]c2c(c1C(=O)NCCN1CCOCC1)CCC/C2=C1/C(=O)Nc2ccc(F)cc21	–
21.3 nM	2.7 nM	9.9 nM	CCN(CC)CCCNC(=O)c1c(C)[nH]c2c1CCC/C2=C1/C(=O)Nc2ccc(F)cc21	–
64.8 nM	3.8 nM	10.7 nM	Cc1[nH]c2c(c1C(=O)NCCCN1CCCC1)CCC/C2=C1/C(=O)Nc2ccc(F)cc21	–
40.7 nM	8 nM	7.8 nM	Cc1[nH]c2c(c1C(=O)N1CCC(N3CCCCC3)CC1)CCC/C2=C1/C(=O)Nc2ccc(F)cc21	–
